{"source": "patent US10696661B2", "about": "“Compounds” (Exonate Limited, priority 2015, dated 2020)", "key": {"[1]": {"tested_on": "VEGF165b and VEGF165 protein in retinal pigmented epithelial cells", "experiment": "VEGF isoform specific ELISA in retinal pigmented epithelial cells", "type": "cell-based, human", "settings": "relative to DMSO control, FIG. 3", "description": "96-well clear microplate (high sensitivity thermo immulon or costar 9018) were coated with 100 μL of 10 μg/ml VEGFxxxb or 0.25 μg/ml anti-hVEGF165a per well. The plate was sealed with parafilm and incubated overnight on the shaker at room temp. Each well was aspirated and washed with Wash Buffer (200 μl PBS-Tween 0.05%), two times for a total of three washes. After the last wash, remaining Wash Buffer was removed by inverting the plate and blotting it against clean paper towels. Plates were blocked by adding 100 μl of Reagent Diluent (1% BSA/PBS) to each well and incubated at room temp on a shaker for 2 hours. The aspiration/wash step was repeated. 100 μL of standards or samples in 1% BSA/PBS were added to each well, covered with parafilm and incubated 2 hours at room temperature. The aspiration/wash was repeated and 100 μL of 100 ng/ml Detection Antibody (BAF293), diluted in Reagent Diluent, was added to each well which were covered with parafilm and incubated 2 hours at room temp. The aspiration/wash was repeated and 100 μL of the working dilution of Streptavidin-HRP (1:200 dilution) was added to each well. […] The optical density of each well was measured immediately, using a microplate reader set to 450 nm.\nTo determine whether these compounds could switch splicing of VEGF isoforms, VEGF was measured in retinal pigmented epithelial cells by isoform specific ELISA."}, "[2]": {"tested_on": "laser-induced choroidal neovascularisation (CNV)", "experiment": "Laser-induced choroidal neovascularisation (CNV) in mice, topical eye drops", "type": "in vivo", "settings": "mouse, eye drop, FIG. 4-7", "description": "6-8 week-old female C57/B6 mice were anesthetized with an intraperitoneal injection of a mixture of 50 mg/kg ketamine and 0.5 mg/kg medetomidine. The pupils were immediately dilated by topical (eyedrop) application with a dilator such as 5% phenylephrine hydrochloride and 1% tropicamide. Four photocoagulation lesions were delivered with a green Merilas 532a laser (450 mW, 130 ms) between the “large” retinal vessels in clear space with no vessels in a peripapillary distribution at a distance of 1-2 disc-diameters in each eye. Only clean laser lesions with a subretinal bubble at the time of treatment were included in the study. Immediately following laser photocoagulation the animals were given topical eye drops of candidate compounds twice daily (10 μl, eyes held for 30 seconds to prevent animal wiping drop away).\nAfter one week, mice were anesthetized with an intraperitoneal injection of a mixture of 50 mg/kg ketamine and 0.5 mg/kg medetomidine. The pupils were immediately dilated by topical (eyedrop) application with a dilator such as 5% phenylephrine hydrochloride and 1% tropicamide. Mice were administered an intraperitoneal injection of sodium fluorescein (10%). Phase contrast and green fluorescent fundus images were taken with an angiography microscope and camera with each lesion in focus. […]"}, "[3]": {"tested_on": "VEGF165b and VEGF165", "settings": "cited from earlier work"}, "[4]": {"tested_on": "VEGF-A165a / VEGF-A165b mRNA in primary RPE cells and ARPE-19 cells", "experiment": "qRT-PCR and conventional PCR of VEGF-A alternative splicing", "type": "cell-based, human", "settings": "FIGS. 8 and 9", "text": "Primary human retinal epithelial cells were lysed in Trizol reagent and mRNA was extracted using the method of Chomczynski and Sacchi, or using an RNeasy RNA extraction kit (Qiagen, UK). mRNA was reverse transcribed using Thermoscript reverse transcriptase (Fisher Scientific, UK). The cDNA was amplified using primers designed to amplify the region spanning the proximal and distal splice sites in human VEGF-A165a and VEGF-A165b, to amplify both isoforms and differentiate between them due to the fact that the exon 8b-containing isoform is 66-bp shorter than the exon 8a-containing isoform. The primers used were; 5′-[…]-3′ (SEQ ID NO:2) and 5′-[…]-3′ (SEQ ID NO:3) with the following conditions; 96° C. for 2 min followed by 45 cycles at 96° C.-30 s, 60° C.-30 s and 72° C.-30 s. The PCR mix consisted of DNA: 200 ng, MgCl2 0.25 mM, Primer each […], Taq polymerase 1 unit and dH2O up to 25 μl. Control plasmid concentration: VEGF165a 500 ng and VEGF165b 1 μg. PCR products were run on 3% agarose gels containing 0.5 μg/ml ethidium bromide.\nRNA was isolated and reverse transcribed as described above. Quantitative PCR (qPCR) was performed with a LightCycler 480 (Roche) q-PCR machine. The qPCR mix included PCR-grade dH2O 3 PCR Primer (1 μM) 2 μl. […]\nVEGF-A alternative splicing was further measured in retinal pigmented epithelial cells by qRT-PCR and conventional PCR."}, "[5]": {"tested_on": "neovascular AMD", "settings": "treated monthly, 0.5 mg, at one year; cited from earlier work"}}}
{"molecule": "O=C(Nc1cc(C(F)(F)F)ccc1N1CCN(Cc2cocn2)CC1)c1ccc(-c2ccncc2)o1", "note": "[Compound 17, N-(2-(4-(oxazol-4-ylmethyl)piperazin-1-yl)-5-(trifluoromethyl)phenyl)-5-(pyridin-4-yl)furan-2-carboxamide]", "values": [{"measurement": "VEGF165b protein", "setting": "[1]", "result": "increase in VEGF165b"}, {"measurement": "VEGF165 protein", "setting": "[1]", "result": "not VEGF165 protein"}, {"measurement": "anti-angiogenic activity on lesion size / efficacy compared with reference compound", "setting": "[2]; listed as N-(2-(4-(oxazol-4-ylmethyl)piperazin-1-yl)-5-(trifluoromethyl)phenyl)-5-(pyridin)", "result": "same efficacy"}, {"measurement": "anti-angiogenic activity on lesion size / efficacy compared with reference compound", "setting": "[2]; listed as compound 17", "result": "same anti-angiogenic activity on lesion size and the same efficacy as reference compounds"}]}
{"molecule": "bevicizumab (Avastin): an anti-VEGF antibody from which Lucentis was derived", "values": [{"measurement": "binding potency to VEGF165b versus VEGF165", "setting": "[3]", "result": "equal potency"}]}
{"molecule": "O=C(Nc1cc(C(F)(F)F)ccc1N1CCN(Cc2cc[nH]n2)CC1)c1ccc(C2CCOCC2)o1", "note": "[Compound 14, N-(2-(4-((1H-pyrazol-3-yl)methyl)piperazin-1-yl)-5-(trifluoromethyl)-phenyl)-5-(tetrahydro-2H-pyran-4-yl)furan-2-carboxamide]", "values": [{"measurement": "VEGF-A165a/VEGF165b mRNA isoform expression", "setting": "[4]; endothelial cells (figure legend)", "result": "decrease"}, {"measurement": "levels of VEGF165b relative to VEGF165 RNA", "setting": "[4]; primary RPE cells and ARPE-19 cells", "result": "switched the levels of VEGF165b relative to VEGF165 RNA by a decrease in VEGF165"}]}
{"molecule": "Lucentis: a novel humanized anti-VEGF antibody fragment (antibody, chains of the INN, looked up, V domains shown, Fab, a novel humanized anti-VEGF antibody fragment) VH: EVQLVESGGGLVQPGGSLRLSCAASGYDFTHYGMNWVRQAPGKGLEWVGWINTYTGEPTYAADFKRRFTFSLDTSKSTAYLQMNSLRAEDTAVYYCAKYPYYYGTSHWYFDVWGQGTLVTVSS VL: DIQLTQSPSSLSASVGDRVTITCSASQDISNYLNWYQQKPGKAPKVLIYFTSSLHSGVPSRFSGSGSGTDFTLTISSLQPEDFATYYCQQYSTVPWTFGQGTKVEIK", "values": [{"measurement": "patients who maintained visual acuity (loss of <15 letters)", "setting": "[5]", "result": "approximately 95%"}, {"measurement": "patients with improved vision (gain of ≥15 letters)", "setting": "[5]", "result": "≤ 40", "unit": "%"}]}
